Data set [1] addresses T1, hOAT1 (SLC22A6) (Homo sapiens, UniProt Q4U2R8).
T1 construct: expressed in transfected cells
T1 sequence (Q4U2R8 1-550 isoform Q4U2R8-2): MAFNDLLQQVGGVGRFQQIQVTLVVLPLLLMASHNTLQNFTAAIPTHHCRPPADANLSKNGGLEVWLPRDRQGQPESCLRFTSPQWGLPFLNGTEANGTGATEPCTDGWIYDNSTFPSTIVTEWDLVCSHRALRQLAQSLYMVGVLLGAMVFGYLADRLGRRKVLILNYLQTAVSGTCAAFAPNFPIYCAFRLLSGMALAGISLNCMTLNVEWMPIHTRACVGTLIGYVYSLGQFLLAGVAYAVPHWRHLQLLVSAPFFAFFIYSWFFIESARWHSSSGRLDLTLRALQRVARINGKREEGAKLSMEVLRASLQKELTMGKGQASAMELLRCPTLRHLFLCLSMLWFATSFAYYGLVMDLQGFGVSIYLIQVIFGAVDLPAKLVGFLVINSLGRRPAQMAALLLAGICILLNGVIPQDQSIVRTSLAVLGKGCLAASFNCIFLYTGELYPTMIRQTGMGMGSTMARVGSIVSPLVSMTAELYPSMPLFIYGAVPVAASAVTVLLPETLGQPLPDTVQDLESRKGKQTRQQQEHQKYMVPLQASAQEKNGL
Put plainly: Inhibition of hOAT1-mediated [3H]PAH uptake, cell accumulation assay in CHO-hOAT1 cells. The format is cell-based. The following applies: for Ki: assuming competitive inhibition, 1 min uptake, read-out: inhibition constant Ki for hOAT1. As to the method: (§1) The cell accumulation assay protocol was performed as described in our recent publications with minor modifications. In brief, 2 × 10^5 cells/well were seeded in 24-well tissue culture plates and grown in the absence of antibiotics for two days. For transport experiments cells were preincubated in transport buffer without substrates or inhibitors for 10 min after which time the buffer was replaced with 400 μL of fresh transport buffer containing 1 μM [^3H]PAH (0.5 μCi/mL) or [^3H]ES (0.25 μCi/mL) with or without test compounds. After incubation for times specified in the figure legends, cellular uptake was quenched by quickly rinsing each well three times with fresh ice-cold transport buffer. Cells were lysed with 1 M NaOH and radioactivity was measured with a liquid scintillation counter and reported as picomoles of substrate per milligram total protein. All intracellular uptake data were corrected for background accumulation in corresponding empty vector transfected control cells. Kinetic calculations were performed using GraphPad Prism Software version 5.0 (GraphPad Software Inc., San Diego, CA). The half maximal inhibitory concentrations (IC50) and inhibitory constants (K i) were calculated using nonlinear regression with the appropriate models. Results were confirmed by repeating all experiments at least three times with triplicate wells for each data point.
Ten-minute uptake of [^3H]PAH (1 μM) was measured in CHO-hOAT1 cells in the absence and presence of test compounds (50 μM) or probenecid (1000 μM). Data represent hOAT1-mediated transport specifically, that is, data have been corrected for background PAH accumulation measured in empty vector transfected cells. Values are mean ± S.D. of triplicate values from a representative experiment. ** denotes P < 0.01, and *** denotes P < 0.001 as determined by one-way ANOVA followed by Dunnett's t-test.
One-minute uptake of [^3H]PAH (1 μM) in CHO-hOAT1 cells was measured in the presence of increasing concentrations (10^−7 to 5 × 10^−4 M) of test compounds. Data were corrected by subtracting background PAH accumulation measured in empty vector transfected cells. IC50 values were determined with nonlinear regression and the “log(inhibitor) versus response” model using GraphPad Prism software. Experiments were repeated three times with triplicate samples and graphs shown are from representative experiments with values plotted as mean ± S.D. (n = 3). The data were used to generate mean IC50 ± S.E.M. estimates.

Data set [2] has as its target T2, hOAT3 (SLC22A8) (Homo sapiens, UniProt Q8TCC7).
T2 construct: expressed in transfected cells
T2 sequence (Q8TCC7 1-542): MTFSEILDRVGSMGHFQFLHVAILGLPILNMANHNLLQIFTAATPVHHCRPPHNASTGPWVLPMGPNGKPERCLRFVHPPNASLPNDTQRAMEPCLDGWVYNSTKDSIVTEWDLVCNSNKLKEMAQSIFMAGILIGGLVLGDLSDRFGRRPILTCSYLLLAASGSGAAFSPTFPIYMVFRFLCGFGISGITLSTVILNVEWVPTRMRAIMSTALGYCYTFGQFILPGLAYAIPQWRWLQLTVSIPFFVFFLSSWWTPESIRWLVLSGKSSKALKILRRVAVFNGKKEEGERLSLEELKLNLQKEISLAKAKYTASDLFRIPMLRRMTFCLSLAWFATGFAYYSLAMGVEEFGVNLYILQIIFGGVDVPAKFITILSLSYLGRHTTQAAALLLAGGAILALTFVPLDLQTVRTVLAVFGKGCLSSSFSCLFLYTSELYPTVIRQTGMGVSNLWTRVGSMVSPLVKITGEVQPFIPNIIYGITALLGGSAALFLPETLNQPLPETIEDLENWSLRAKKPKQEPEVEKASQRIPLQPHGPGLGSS
Put plainly: Inhibition of hOAT3-mediated [3H]ES uptake, cell accumulation assay in HEK-hOAT3 cells. It is filed as cell-based. Particulars: 50 μM test compound, 10 min uptake; for inhibition at 50 µM: 1 μM [3H]ES (50-fold excess). The protocol: (§2) Derivation and culture of stably transfected Chinese hamster ovary (CHO) cells expressing hOAT1 (CHO-hOAT1) and hOAT4 (CHO-hOAT4), stably transfected human embryonic kidney 293 (HEK) cells expressing hOAT3 (HEK-hOAT3), and their corresponding empty vector transfected background control cell lines, have been described previously.
as §1, with “point. […]” for “point.”
Figure 4 Inhibitory effects of the nine test compounds on hOAT3-mediated ES uptake. Ten-minute uptake of [^3H]ES (1 μM) was measured in HEK-hOAT3 cells in the absence and presence of test compounds (50 μM) or probenecid (1000 μM). Data represent hOAT3-mediated transport specifically, that is, data have been corrected for background ES accumulation measured in empty vector transfected cells. Values are mean ± S.D. of triplicate values from a representative experiment. * denotes P < 0.05, ** denotes P < 0.01, and *** denotes p < 0.001 as determined by one-way ANOVA followed by Dunnett's t-test.

Data set [3] addresses T1, hOAT1 (SLC22A6). As to the kind of experiment: Inhibition of hOAT1-mediated [3H]PAH uptake, cell accumulation assay in CHO-hOAT1 cells. Particulars: dose-response 0.01–500 μM, 1 μM [3H]PAH, 1 min uptake, mean ± S.E.M., read-out: IC50 on hOAT1-mediated PAH transport. It is filed as cell-based.
A further data set addresses T3, hOAT4 (SLC22A11) (Homo sapiens, UniProt Q9NSA0).
T3 construct: expressed in transfected cells
T3 sequence (Q9NSA0 1-550): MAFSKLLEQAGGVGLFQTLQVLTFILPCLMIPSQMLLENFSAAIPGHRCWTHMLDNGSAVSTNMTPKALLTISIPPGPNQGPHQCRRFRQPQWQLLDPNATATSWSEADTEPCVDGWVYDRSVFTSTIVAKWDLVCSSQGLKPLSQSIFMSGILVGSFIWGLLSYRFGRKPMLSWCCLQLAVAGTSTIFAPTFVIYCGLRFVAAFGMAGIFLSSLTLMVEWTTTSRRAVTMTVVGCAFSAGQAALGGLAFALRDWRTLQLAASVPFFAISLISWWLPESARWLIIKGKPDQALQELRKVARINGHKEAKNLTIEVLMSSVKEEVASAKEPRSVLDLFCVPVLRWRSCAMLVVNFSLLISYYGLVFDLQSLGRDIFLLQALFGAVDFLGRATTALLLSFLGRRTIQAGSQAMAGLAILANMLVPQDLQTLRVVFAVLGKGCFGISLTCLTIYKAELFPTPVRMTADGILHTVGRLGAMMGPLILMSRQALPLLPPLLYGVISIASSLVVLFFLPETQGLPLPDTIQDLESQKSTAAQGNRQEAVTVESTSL
Put plainly: Inhibition of hOAT4-mediated [3H]ES uptake, cell accumulation assay in CHO-hOAT4 cells. The format is cell-based. The following applies: 1 μM [3H]ES, 10 min uptake, CHO-hOAT4 cells. The protocol:
as §2
as §1, with “point. […]” for “point.”
Figure 5 Inhibitory effects of the nine test compounds on hOAT4-mediated ES uptake. Ten minute uptake of [^3H]ES (1 μM) was measured in CHO-hOAT4 cells in the absence and presence of test compounds (50 μM) or ES (1000 μM for self-inhibition). Data represent hOAT4-mediated transport specifically, that is, data have been corrected for background ES accumulation measured in empty vector transfected cells. Values are mean ± S.D. of triplicate values from a representative experiment. * denotes P < 0.05, and *** denotes P < 0.001 as determined by one-way ANOVA followed by Dunnett's t-test.

Data set [4] concerns the target T2, hOAT3 (SLC22A8). Set-up: method as in PMID 22877817. Particulars: linear uptake for initial 1 min; cited from earlier work.
For data set [5] the following is noted: human subjects, oral, cited from earlier work.
The mark [6] stands for this setting: 50 μM test compound, 1 μM [3H]PAH (50-fold excess), 10 min uptake.

Where a name gives a salt, the structure may show the parent alone. Read-outs that look alike come from different tables or passages of the source. A value given as a limit tells only on which side of the number the result lay.

Turning to `O=C(/C=C/c1ccc(O)c(O)c1)O[C@@H]1C[C@@](OC(=O)/C=C/c2ccc(O)c(O)c2)(C(=O)O)C[C@@H](O)[C@@H]1O` [1,3-Dicaffeoylquinic acid, 1,3-dicaffeoylquinic acid], the inhibition (commonly the share of the control response that was lost under treatment) at 50 µM at hOAT1 (SLC22A6) [1] (setting [6]) was found to be 64%; on hOAT3 (SLC22A8) [2], 41%. Besides, the inhibition constant Ki (as a rule, the equilibrium dissociation constant of an inhibitor or competing ligand from its target) at hOAT1 (SLC22A6) [1] (1 μM [3H]PAH) was found to be 1100 ± 200 nM. Besides, the IC50 – broadly, the midpoint of a concentration-inhibition curve – at hOAT1 (SLC22A6) [3] stood at 1200 ± 400 nM.
For `C[C@]12CC[C@@H]3c4ccc(OS(=O)(=O)O)cc4CC[C@H]3[C@@H]1CCC2=O` [ES, estrone sulfate, reference compound], the “inhibition of hOAT4-mediated ES uptake (self-inhibition)” value against hOAT4 (SLC22A11) (unlabeled ES 1000 μM) was greater than 96%. Also, the “K m of ES uptake in hOAT3 expressing cells” value at hOAT3 (SLC22A8) [4] was 14.5 µM.
On to `Oc1cc(O)c2c(c1)O[C@H](c1ccc(O)c(O)c1)[C@H](O)C2` [Epicatechin], for which the “effect on hOAT1-mediated PAH uptake (in words)” value at hOAT1 (SLC22A6) [1] (50 μM test compound, 1 μM [3H]PAH, 10 min uptake) is “no inhibition”. Further, the inhibition at 50 µM against hOAT3 (SLC22A8) [2] lay within 30 to 35%. Further, in data set [5] (37 mg), the highest concentration (Cmax) (as a rule, the peak of the concentration-time curve) is 200 nM.
Take `CC1(C)[C@@H](O)CC[C@]2(C)[C@H]3C(=O)C=C4[C@@H]5C[C@@](C)(C(=O)O)CC[C@]5(C)CC[C@@]4(C)[C@]3(C)CC[C@@H]12` [18β-glycyrrhetinic acid]: the “inhibition of hOAT1-mediated PAH uptake” value against hOAT1 (SLC22A6) [1] (setting [6]) is 56%. Further, the Ki on hOAT1 (SLC22A6) [1] (1 μM [3H]PAH) was found to be 2500 ± 200 nM. Further, on hOAT3 (SLC22A8) [2] (1 μM [3H]ES), the “effect on hOAT3-mediated ES uptake (in words)” value is on record as “failed to produce significant inhibition”. In addition, the “effect on hOAT4-mediated ES uptake (in words)” value at hOAT4 (SLC22A11) (50 μM test compound) is reported as “significant stimulation of ES uptake”. The half-inhibitory concentration (IC50) on hOAT1 (SLC22A6) [3] came to 2700 ± 200 nM. Besides, the Cmax in data set [5] (130–144 mg glycyrrhizin, assuming plasma 18α- : 18β-glycyrrhetinic acid about 1 : 3) is 110 to 2900 nM.
On to `CCCCCCC=CCCCCCCCCCc1cccc(O)c1C(=O)O` [ginkgolic acid (17 : 1)], for which the inhibition at 50 µM came out at 42% on hOAT1 (SLC22A6) [1] (setting [6]) and 41% at hOAT3 (SLC22A8) [2].

The record behind these values is publication PMC3618943, “Interaction of Natural Dietary and Herbal Anionic Compounds and Flavonoids with Human Organic Anion Transporters 1 (SLC22A6), 3 (SLC22A8), and 4 (SLC22A11)” (Evidence-based Complementary and Alternative Medicine : eCAM, 2013).
